Source: PubChem BioAssay (NCI)
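Tested at 5 concentrations; 48 h exposure; 96-well plates; endpoints linearly interpolated, else capped at highest concentration. GI50 marks 50% less growth. TGI denotes the concentration required for complete inhibition of growth.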

Legend:
Assay in all cases: NCI anticancer screen, dose series, 48 h
SNB-75 CNS = system: SNB-75 CNS
SNB-19 CNS = system: SNB-19 CNS
TK-10 renal = system: TK-10 renal
HCT-116 colon = system: HCT-116 colon
A549 NSCLC = system: A549 NSCLC
KM12 colon = system: KM12 colon
M14 melanoma = system: M14 melanoma
HCT-15 colon = system: HCT-15 colon
SR leukemia = system: SR leukemia
NCI-H226 lung = system: NCI-H226 lung
U251 CNS = system: U251 CNS
SW-620 colon = system: SW-620 colon
NCI/ADR-RES ovarian = system: NCI/ADR-RES ovarian
RXF 393 renal = system: RXF 393 renal
MDA-MB-231 breast = system: MDA-MB-231 breast
ACHN renal = system: ACHN renal
SN12C renal = system: SN12C renal
UO-31 renal = system: UO-31 renal
RPMI-8226 leukemia = system: RPMI-8226 leukemia
HCC-2998 colon = system: HCC-2998 colon
NCI-H23 lung = system: NCI-H23 lung
DU-145 prostate = system: DU-145 prostate
CCRF-CEM leukemia = system: CCRF-CEM leukemia
OVCAR-3 ovarian = system: OVCAR-3 ovarian
SK-MEL-28 melanoma = system: SK-MEL-28 melanoma
CAKI-1 renal = system: CAKI-1 renal
T-47D breast = system: T-47D breast
786-0 renal = system: 786-0 renal
SF-295 CNS = system: SF-295 CNS
SF-539 CNS = system: SF-539 CNS
BT-549 breast = system: BT-549 breast
NCI-H522 lung = system: NCI-H522 lung
HOP-92 NSCLC = system: HOP-92 NSCLC
MALME-3M melanoma = system: MALME-3M melanoma
OVCAR-5 ovarian = system: OVCAR-5 ovarian
HT29 colon = system: HT29 colon
EKVX NSCLC = system: EKVX NSCLC
SK-MEL-5 melanoma = system: SK-MEL-5 melanoma
OVCAR-8 ovarian = system: OVCAR-8 ovarian
LOX IMVI melanoma = system: LOX IMVI melanoma
HOP-62 NSCLC = system: HOP-62 NSCLC
MDA-MB-435 = system: MDA-MB-435
PC-3 prostate = system: PC-3 prostate
HS 578T breast = system: HS 578T breast
NCI-H460 lung = system: NCI-H460 lung
UACC-257 melanoma = system: UACC-257 melanoma
SK-OV-3 ovarian = system: SK-OV-3 ovarian
SK-MEL-2 melanoma = system: SK-MEL-2 melanoma
MCF7 breast = system: MCF7 breast
SF-268 CNS = system: SF-268 CNS
COLO 205 colon = system: COLO 205 colon
MOLT-4 leukemia = system: MOLT-4 leukemia
IGROV1 ovarian = system: IGROV1 ovarian
K-562 leukemia = system: K-562 leukemia
UACC-62 melanoma = system: UACC-62 melanoma
OVCAR-4 ovarian = system: OVCAR-4 ovarian
A498 renal = system: A498 renal
HL-60(TB) leukemia = system: HL-60(TB) leukemia

Compound: O=C1Nc2ccccc2SC1C1SC(=S)N(Cc2ccccc2)C1=O (stereo unspecified)
- GI50 (SNB-75 CNS): 10.5 µM
- TGI (SNB-75 CNS): 24.6 µM
- GI50 (SNB-19 CNS): 11.2 µM
- TGI (SNB-19 CNS): 29.5 µM
- GI50 (TK-10 renal): 5.71 µM
- TGI (TK-10 renal): 22 µM
- GI50 (HCT-116 colon): 2.45 µM
- TGI (HCT-116 colon): 9.28 µM
- GI50 (A549 NSCLC): 16 µM
- TGI (A549 NSCLC): > 51.4 µM
- GI50 (KM12 colon): 0.458 µM
- TGI (KM12 colon): 1.99 µM
- GI50 (M14 melanoma): 4.6 µM
- TGI (M14 melanoma): 19.8 µM
- GI50 (HCT-15 colon): 3.37 µM
- TGI (HCT-15 colon): 16 µM
- GI50 (SR leukemia): 4.03 µM
- TGI (SR leukemia): > 78.2 µM
- GI50 (NCI-H226 lung): 17 µM
- TGI (NCI-H226 lung): 35 µM
- GI50 (U251 CNS): 3.14 µM
- TGI (U251 CNS): 12.2 µM
- GI50 (SW-620 colon): 2.39 µM
- TGI (SW-620 colon): 13.6 µM
- GI50 (NCI/ADR-RES ovarian): 23.6 µM
- TGI (NCI/ADR-RES ovarian): 97.4 µM
- GI50 (RXF 393 renal): 4.21 µM
- TGI (RXF 393 renal): > 27.7 µM
- GI50 (MDA-MB-231 breast): 3.65 µM
- TGI (MDA-MB-231 breast): 12.9 µM
- GI50 (ACHN renal): 7.41 µM
- TGI (ACHN renal): 20.3 µM
- GI50 (SN12C renal): 4.79 µM
- TGI (SN12C renal): 15.2 µM
- GI50 (UO-31 renal): 5.63 µM
- TGI (UO-31 renal): 22.8 µM
- GI50 (RPMI-8226 leukemia): 0.488 µM
- TGI (RPMI-8226 leukemia): 7.39 µM
- GI50 (HCC-2998 colon): 5.33 µM
- TGI (HCC-2998 colon): 17.1 µM
- GI50 (NCI-H23 lung): 11.8 µM
- TGI (NCI-H23 lung): 35.2 µM
- GI50 (DU-145 prostate): 2.26 µM
- TGI (DU-145 prostate): 5.58 µM
- GI50 (CCRF-CEM leukemia): 1.76 µM
- TGI (CCRF-CEM leukemia): > 29.8 µM
- GI50 (OVCAR-3 ovarian): 2.37 µM
- TGI (OVCAR-3 ovarian): 6.31 µM
- GI50 (SK-MEL-28 melanoma): 4.99 µM
- TGI (SK-MEL-28 melanoma): 18 µM
- GI50 (CAKI-1 renal): 4.53 µM
- TGI (CAKI-1 renal): 17.6 µM
- GI50 (T-47D breast): 0.815 µM
- TGI (T-47D breast): 21.1 µM
- GI50 (786-0 renal): 5.06 µM
- TGI (786-0 renal): 16.5 µM
- GI50 (SF-295 CNS): 10.2 µM
- TGI (SF-295 CNS): 40.2 µM
- GI50 (SF-539 CNS): 3.79 µM
- TGI (SF-539 CNS): 12.8 µM
- GI50 (BT-549 breast): 5.71 µM
- TGI (BT-549 breast): 22.3 µM
- GI50 (NCI-H522 lung): 5.29 µM
- TGI (NCI-H522 lung): 19.1 µM
- GI50 (HOP-92 NSCLC): 4.21 µM
- TGI (HOP-92 NSCLC): 24.7 µM
- GI50 (MALME-3M melanoma): 15.9 µM
- TGI (MALME-3M melanoma): > 61.5 µM
- GI50 (OVCAR-5 ovarian): 20.2 µM
- TGI (OVCAR-5 ovarian): 37 µM
- GI50 (HT29 colon): 3.98 µM
- TGI (HT29 colon): 39.8 µM
- GI50 (EKVX NSCLC): 21.7 µM
- TGI (EKVX NSCLC): 53.2 µM
- GI50 (SK-MEL-5 melanoma): 13.7 µM
- TGI (SK-MEL-5 melanoma): 29.3 µM
- GI50 (OVCAR-8 ovarian): 23.7 µM
- TGI (OVCAR-8 ovarian): > 88.2 µM
- GI50 (LOX IMVI melanoma): 2.08 µM
- TGI (LOX IMVI melanoma): 7.78 µM
- GI50 (HOP-62 NSCLC): 6.62 µM
- TGI (HOP-62 NSCLC): 19.7 µM
- GI50 (MDA-MB-435): 3.04 µM
- TGI (MDA-MB-435): 15.5 µM
- GI50 (PC-3 prostate): 5.74 µM
- TGI (PC-3 prostate): > 43 µM
- GI50 (HS 578T breast): 5.52 µM
- TGI (HS 578T breast): 31.2 µM
- GI50 (NCI-H460 lung): 8.21 µM
- TGI (NCI-H460 lung): 29.8 µM
- GI50 (UACC-257 melanoma): 20.1 µM
- TGI (UACC-257 melanoma): 39 µM
- GI50 (SK-OV-3 ovarian): 22.9 µM
- TGI (SK-OV-3 ovarian): > 100 µM
- GI50 (SK-MEL-2 melanoma): 18.6 µM
- TGI (SK-MEL-2 melanoma): 37.4 µM
- GI50 (MCF7 breast): 1.21 µM
- TGI (MCF7 breast): 14.4 µM
- GI50 (SF-268 CNS): 3.37 µM
- TGI (SF-268 CNS): 11.4 µM
- GI50 (COLO 205 colon): 3.38 µM
- TGI (COLO 205 colon): 17.8 µM
- GI50 (MOLT-4 leukemia): 3.57 µM
- TGI (MOLT-4 leukemia): > 36 µM
- GI50 (IGROV1 ovarian): 3.37 µM
- TGI (IGROV1 ovarian): 16.5 µM
- GI50 (K-562 leukemia): 2.65 µM
- TGI (K-562 leukemia): > 81.1 µM
- GI50 (UACC-62 melanoma): 10.6 µM
- TGI (UACC-62 melanoma): 23.3 µM
- GI50 (OVCAR-4 ovarian): 13.9 µM
- TGI (OVCAR-4 ovarian): 33.7 µM
- GI50 (A498 renal): 14.6 µM
- TGI (A498 renal): 32.9 µM
- GI50 (HL-60(TB) leukemia): 3.46 µM
- TGI (HL-60(TB) leukemia): 32.2 µM
